Assay results reported in PubChem BioAssay AID488835 (Broad Institute, 2010).

Target: Lysine-specific demethylase 4C (Homo sapiens) (UniProt Q9H3R0)
Experiment: inhibition of JMJD2C H3K9me3 demethylation – biochemical, DELFIA europium, cherry-picked samples, dose response (AID 488835);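 note: signal is the H3K9me2 demethylation product detected by a dimethyl-specific antibody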
Conditions: GST-JMJD2C(1-420)

Sequence of Lysine-specific demethylase 4C (Homo sapiens) (Q9H3R0 1-420 limits assumed): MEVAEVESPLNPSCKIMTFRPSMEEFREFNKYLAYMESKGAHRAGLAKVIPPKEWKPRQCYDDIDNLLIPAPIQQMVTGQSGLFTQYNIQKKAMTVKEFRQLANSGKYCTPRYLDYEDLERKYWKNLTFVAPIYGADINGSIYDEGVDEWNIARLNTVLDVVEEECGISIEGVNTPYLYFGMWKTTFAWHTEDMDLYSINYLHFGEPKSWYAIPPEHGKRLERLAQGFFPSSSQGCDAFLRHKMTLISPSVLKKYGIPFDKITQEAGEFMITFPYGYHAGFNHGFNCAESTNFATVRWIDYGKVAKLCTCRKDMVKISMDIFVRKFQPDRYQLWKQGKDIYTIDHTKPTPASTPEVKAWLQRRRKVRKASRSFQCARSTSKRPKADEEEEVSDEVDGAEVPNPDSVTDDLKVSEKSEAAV

AC50: 6.07 µM
Compound: C#CCOCCOCCOCCNc1nc(N2CCN(C(=O)CCCCCCCCCCNC(=O)[C@H]([C@@H](C)CC)n3cc(CCCCN=C(N)N)nn3)CC2)nc(N2CCN(C(=O)CCCCCCCCCCNC(=O)[C@H](CCCCN)n3cc(C)nn3)CC2)n1
